From PMC9951290, “Comprehensive Structure–Activity Relationship Studies of Cepafungin Enabled by Biocatalytic C–H Oxidations” (ACS Central Science, 2023) come the findings set out here.

The target in this test is T1, proteasome subunit β5 (Homo sapiens, UniProt P28074).
T1 construct: Following incubation of the compounds in cell culture for 6 h, cells were lysed; endogenous in cells; host or cells: RPMI 8226 (human multiple myeloma)
In words: In situ β5 proteasome activity assay (Suc-LLVY-AMC) in RPMI 8226 cells. Particulars: RPMI 8226 cells. In kind it is cell-based. The source says: A preliminary series of analogues, including the natural product glidobactin A (2), were synthesized by largely the same route (Scheme 2B, Figure 2).[36] Desoxycepafungin (38) was synthesized from Boc-Lys(Boc)-OH by peptide couplings/macrocyclization to assess the role of the macrocycle hydroxylation in 1 toward proteasome inhibition. The saturated cepafungin analogue 39 was designed to address the possible role of rigidity in the tail fragment induced by the diene seen in many natural cepafungins and glidobactins. An analogue bearing unsaturation at its macrocyclic lysine was envisioned to provide a head-to-head comparison between the cepafungin and syringolin macrocyclic core. […] Proteasome subunit β5 IC50 values were determined in situ in RPMI 8226 cells. In close agreement with prior measurement of β5 IC50 for natural 1 and 2 in purified yeast proteasome,[12] in our hands the additional branching methyl in 1 indeed leads to ca. 5-fold improved IC50 compared to 2 in RPMI 8226 cells. […] Likewise, saturation of the fatty acid fragment in 39 causes ca. 14-fold decrease in β5 inhibition. This preliminary series of analogues highlighted that the macrocyclic hydroxylation, fatty acid unsaturation, and terminal lipid functionality are critical for potent proteasome inhibitory activity.
Cellular assays were performed on human multiple myeloma RPMI 8226 cells (Figure 4). First, relative inhibition of proteasome subunits β5 and β2 for all analogues and the natural product was measured at 30 nM compound concentration. Following incubation of the compounds in cell culture for 6 h, cells were lysed, and fluorogenic subunit-specific peptide substrates Suc-LLVY-AMC (β5) or Ac-RLR-AMC (β2) were incubated with the lysates; fluorescence readings provided relative proteasome activity levels in comparison with DMSO (Figure 4A). Next, cytotoxicity screening was performed at 30 and 100 nM concentrations for sufficient coverage of dynamic range (Figure 4B). […] Therefore, the improved cytotoxicity of phenyl cepafungin 50 likely results from a more pronounced loss of β5 function in RPMI 8226 cells. This drastic increase in proteasome inhibition may be due to π-stacking of the lipid tail phenyl ring with the β6 subunit residues Tyr106 and/or Tyr5. The β2 subunit-bound natural product has residues Tyr102 and Phe103 on the adjacent β3 subunit oriented further away from the terminal lipid methyl groups, and presumably would not facilitate π-stacking to the extent possible at the adjacent β6 subunit (see Figure 3 and Figure S4). […] These combined modifications were made in hopes that the effects of both substitutions would be additive. […] The presence of a Thr residue next to the cepafungin macrocycle appears to be favored over the ethyl side chain of desoxy-Thr analogue 44 as indicated by cytotoxicity and hydrogen-bonding seen in the cepafungin-bound crystal structure (Figures 3 and 4B). […]
Mammalian cell culture and lysate preparation
Mammalian cells were maintained in RPMI-1640 media. All media were supplemented with 10% fetal bovine serum (FBS, Life Technologies Cat# 10437028), non-essential amino acids (Sigma-Aldrich Cat# M7145) and penicillin/streptomycin (Sigma-Aldrich Cat# P4333). Cells were grown at 37 °C under 5% CO2 atmosphere. […] Cells were lysed by needle sonication to obtain cell lysates and protein concentration was determined using the […]
fluorescence was read at A360ex/A460em. […]

Usually IC50 stands for the concentration that gives 50% inhibition. On to `CC(C)CCCCCC=CC=CC(=O)NC(C(=O)NC1CC(O)CCNC(=O)C=CC(C)NC1=O)C(C)O` (stereo not drawn) [compound 1, cepafungin I], for which the “fold improved β5 IC50 of 1 compared to 2” value was “ca. 5 fold” and the “fold improved β5 inhibition of 1 compared to 38” value is “ca. 11 fold”. For the setting “6 h, Suc-LLVY-AMC, n = 3, Figure 4D”, this compound showed an IC50 of 28 nM.
